Results from patent US12558342B2, “2-[2-({12,12-dimethyl-4-oxo-6-phenyl-3,11-dioxatricyclo[8.4.0.0,2,7]tetradeca-1,5,7,9-tetraen-8-yl}oxy)acetamido]benzamide and derivatives as inhibitor of clock:bmal1 interaction for the treatment of circadian rhythm diseases and disorders” (KOC UNIVERSITESI, priority 2019, dated 2026).

Experiments:
[1] = test system: U2OS cells; assay: MTT-based cell cytotoxicity test; parameters: species or system human
Method: The toxicity of the compounds was assessed by MTT-based assay using immortalized human osteosarcoma (U2OS) cells treated with different compounds at different concentrations. Cell viability was measured with MTT-based cell cytotoxicity test. U2OS cells were seeded on 96-well plate with 4×10^3 cell/well density. Two days later, the cells were treated with an appropriate amount of different small molecules. Control cells were treated with 0.5% vehicle (DMSO). After 48 hours, the media was replaced with a 20% solution of 5 mg/ml MTT in DMEM. After 4 hours of incubation, the media was discarded and a 1:1 solution of ethanol and DMSO was used to dissolve the formazan crystals. Cell viability was measured as stated in Sigma-Aldrich product information.
Compounds with a relative cell viability of less than 80% at 1.25 μM were eliminated. The final concentration of a non-toxic compounds for in vitro experiments was set to the maximum concentration at which it had at least 80% relative cell viability. Ultimately, 72 compounds were statistically identified as non-toxic and used for the next characterization step.

[2] = test system: CLOCK, BMAL1 and CRY1; assay: In vivo study in mouse liver, Western blot; settings: 25 mg/kg i.p., 6 h
Method: Male C57BL/6J mice, 8 weeks of age, weighing 18-24 g were treated with two different single doses of CLK8 (25 mg/kg n=5 per each dose) intraperitoneally. Control mice (n=3) were only treated with vehicle (DMSO:Cremophor EL: 0.9% NaCl; 2.5:15:82.5, v/v, i.p.). Water and food were provided ad libitum throughout the experiments. Six hours after injection, mice were sacrificed by cervical dislocation. Liver tissues were removed, frozen in liquid nitrogen and stored at −80° C. until further processing.

[3] = test system: Per1::dluc NIH 3T3 cells; assay: Real-time monitoring of circadian rhythm, Per1::dluc NIH 3T3; type: cell-based, mouse
Method: We used Bmal1::dluc U2-OS and Per1::dluc NIH 3T3, and continuously monitored the bioluminescence to record circadian rhythm. This experiment was performed in 96-well plates (triplicates) and 35-mm dishes (duplicates) in the secondary screen and detailed characterization steps respectively. Briefly, cells were seeded to reach confluency. A day after, the medium was replaced with DMEM containing 0.1 μM Dexamethasone to synchronize cells. […] The 96-well plates were covered and bioluminescence was monitored by Synergy H1 Hybrid Multi-Mode Reader every 32 minutes. […] Bioluminescence was recorded every 10 minutes for 4-6 days. […] The first day's data was excluded from the analysis due to transient perturbations of luminescence after the medium change.
We used Bmal1::dluc U2-OS and Per1::dluc NIH 3T3, and continuously monitored the bioluminescence to record circadian rhythm. […] The 96-well plates were covered and bioluminescence was monitored by Synergy H1 Hybrid Multi-Mode Reader every 32 minutes. […] Bioluminescence was recorded every 10 minutes for 4-6 days. […] The first day's data was excluded from the analysis due to transient perturbations of luminescence after the medium change.

[4] = biological target: T1, CLOCK (Homo sapiens, UniProt O15516); assay: Pull-down assay with biotinylated CLK8, U2OS lysate with endogenous CLOCK; type: binding; parameters: expressed in transfected cells; host or cells: HEK293T
T1 sequence (O15516 1-846): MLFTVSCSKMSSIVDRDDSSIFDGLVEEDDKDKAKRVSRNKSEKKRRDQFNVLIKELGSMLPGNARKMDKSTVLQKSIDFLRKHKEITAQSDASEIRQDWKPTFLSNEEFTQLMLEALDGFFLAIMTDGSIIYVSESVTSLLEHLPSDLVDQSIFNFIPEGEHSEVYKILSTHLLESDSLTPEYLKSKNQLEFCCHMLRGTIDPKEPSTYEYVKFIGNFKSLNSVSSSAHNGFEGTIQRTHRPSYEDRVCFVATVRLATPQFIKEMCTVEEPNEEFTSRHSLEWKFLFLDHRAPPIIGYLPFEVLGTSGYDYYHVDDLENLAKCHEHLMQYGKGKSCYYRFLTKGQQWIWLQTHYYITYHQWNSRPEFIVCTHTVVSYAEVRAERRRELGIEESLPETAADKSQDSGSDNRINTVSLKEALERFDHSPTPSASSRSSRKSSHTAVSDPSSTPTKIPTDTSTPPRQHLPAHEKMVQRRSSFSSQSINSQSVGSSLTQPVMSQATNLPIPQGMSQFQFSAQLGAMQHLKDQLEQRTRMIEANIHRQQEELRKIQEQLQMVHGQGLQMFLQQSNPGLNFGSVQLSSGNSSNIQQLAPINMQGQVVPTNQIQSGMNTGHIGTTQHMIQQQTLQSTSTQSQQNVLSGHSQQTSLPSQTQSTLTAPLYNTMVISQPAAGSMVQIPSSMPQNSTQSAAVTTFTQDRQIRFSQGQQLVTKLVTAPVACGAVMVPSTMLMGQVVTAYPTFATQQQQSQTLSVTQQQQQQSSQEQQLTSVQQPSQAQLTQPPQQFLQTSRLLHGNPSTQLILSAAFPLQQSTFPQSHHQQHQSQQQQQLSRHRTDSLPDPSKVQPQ

## CC1(C)CCc2c(cc(OCC(=O)Nc3ccccc3C(N)=O)c3c(-c4ccccc4)cc(=O)oc23)O1 [CLK8, 2-[2-({12,12-dimethyl-4-oxo-6-phenyl-3,11-dioxatricyclo [8.4.0.0,2,7]tetradeca-1,5,7,9-tetraen-8-yl}oxy)acetamido] benzamide]
[1]
  toxicity to the U2OS cell line: not toxic
[2]
  CLOCK abundance in the nucleus (liver): significantly low
  CLOCK levels in whole liver cell lysate: decrease
  cytosolic and nuclear BMAL1 and CRY1 (liver): unaltered
  levels of BMAL1 and CRY1 in whole liver cell lysate: unaltered
[3]
  period of circadian rhythm: no period changes
[3]; dose dependent
  amplitude of circadian rhythm: enhances the amplitude
[4]; endogenous CLOCK, input vs precipitated sample
  affinity for CLOCK: high affinity for CLOCK
[4]; except BMAL1, including NPAS2
  other core clock components as target: none of the other core clock components were detected as a target
